# Measured values published in article PMC11358443, “Polymodal K^+ channel modulation contributes to dual analgesic and anti-inflammatory actions of traditional botanical medicines” (Communications Biology, 2024).
# Key:
# Kv1.1 [1] = target: T1, Kv1.1 (Homo sapiens, UniProt Q09470); test: TEVC electrophysiology, Xenopus oocytes expressing Kv1.1; assay type: cell-based; settings: 100 µM; for Slope / V0.5 Normalized tail current / V0.5 non-normalized tail current: paired control in same table
# Experimental: (§1) We generated human potassium channel cRNA transcripts with the mMessage mMachine kit (Thermo Fisher Scientific, Waltham, MA, USA) according to manufacturer’s instructions, after vector linearization, from cDNA sub-cloned into expression vectors (pTLNx, pXOOM and pMAX). We injected Xenopus laevis oocytes (Xenoocyte, Dexter, MI, USA) with the channel cRNAs (0.5–10 ng) and incubated the oocytes at 16 °C for 1–4 days prior to electrophysiological recording.
# (§2) We performed TEVC at 20–23 °C with an OC-725C amplifier (Warner Instruments, Hamden, CT, USA) and pClamp10 software. Chemicals for recording and oocyte storage solutions were from Sigma-Aldrich (St. Louis, MO). Bath solution contained (in mM): 96 NaCl, 4 KCl, 1 MgCl2, 1 CaCl2, 10 HEPES (pH 7.6). Pipettes were 1–2 MΩ resistance when filled with 3 M KCl. We recorded currents in response to voltage pulses between −120 mV or −80 mV and +40 mV at 10 mV intervals from a holding potential of −80 mV, to yield current–voltage relationships and examine activation kinetics. We recorded and analyzed data using Clampfit (Molecular Devices, Sunnyvale, CA, USA) and Graphpad Prism software (GraphPad, San Diego, CA, USA), stating values as mean ± SEM. We calculated the voltage dependence of activation (V0.5) by measuring tail currents at a voltage pulse of −30 mV (Kv7) or −50 mV (Kv1), then fitted the tail current/voltage relationship with a single Boltzmann function:1 g=(A1−A2)/{1+exp[V1/2−V/Vs]}y+A2 where g is the normalized tail conductance, A1 is the initial value at −∞, A2 is the final value at +∞, V1/2 is the half-maximal voltage of activation and Vs the slope factor. We fitted activation and deactivation kinetics with single exponential functions.
# TREK-1 = settings: read-out: TREK-1 activation EC50; cited from earlier work
# Kv1.1 [2] = target: T1, Kv1.1; design: method as in PMID 33093824; settings: cited from earlier work
# Kv7.5 [3] = target: T2, Kv7.5 (Homo sapiens, UniProt Q9NR82); design: method as in PMID 35997997; settings: cited from earlier work
# Kv7.5 [4] = target: T2, Kv7.5; test: TEVC electrophysiology, Xenopus oocytes expressing Kv7.5; assay type: cell-based; settings: 100 µM
# Experimental: as §1, §2
# C57BL/6 mice = test system: C57BL/6 mice; design: method as in Abbott et al., 2021 Front. Physiol. 12:777057; settings: 5 mg/kg morphine; ref Abbott et al., 2021 Front. Physiol. 12:777057; cited from earlier work
# T1 sequence (Q09470 whole entry): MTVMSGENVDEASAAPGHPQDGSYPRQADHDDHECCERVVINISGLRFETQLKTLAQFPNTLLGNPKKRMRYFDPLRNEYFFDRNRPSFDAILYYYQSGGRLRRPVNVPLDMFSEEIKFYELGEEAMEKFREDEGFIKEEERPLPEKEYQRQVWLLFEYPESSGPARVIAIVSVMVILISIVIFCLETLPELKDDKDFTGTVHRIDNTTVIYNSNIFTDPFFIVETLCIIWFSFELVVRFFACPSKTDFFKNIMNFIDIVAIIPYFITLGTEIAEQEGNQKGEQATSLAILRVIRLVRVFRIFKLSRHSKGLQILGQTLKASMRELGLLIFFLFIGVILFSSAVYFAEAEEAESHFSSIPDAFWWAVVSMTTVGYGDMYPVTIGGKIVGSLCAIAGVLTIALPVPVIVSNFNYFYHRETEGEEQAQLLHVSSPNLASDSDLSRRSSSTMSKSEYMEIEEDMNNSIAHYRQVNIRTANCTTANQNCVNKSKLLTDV
# T2 sequence (Q9NR82 whole entry): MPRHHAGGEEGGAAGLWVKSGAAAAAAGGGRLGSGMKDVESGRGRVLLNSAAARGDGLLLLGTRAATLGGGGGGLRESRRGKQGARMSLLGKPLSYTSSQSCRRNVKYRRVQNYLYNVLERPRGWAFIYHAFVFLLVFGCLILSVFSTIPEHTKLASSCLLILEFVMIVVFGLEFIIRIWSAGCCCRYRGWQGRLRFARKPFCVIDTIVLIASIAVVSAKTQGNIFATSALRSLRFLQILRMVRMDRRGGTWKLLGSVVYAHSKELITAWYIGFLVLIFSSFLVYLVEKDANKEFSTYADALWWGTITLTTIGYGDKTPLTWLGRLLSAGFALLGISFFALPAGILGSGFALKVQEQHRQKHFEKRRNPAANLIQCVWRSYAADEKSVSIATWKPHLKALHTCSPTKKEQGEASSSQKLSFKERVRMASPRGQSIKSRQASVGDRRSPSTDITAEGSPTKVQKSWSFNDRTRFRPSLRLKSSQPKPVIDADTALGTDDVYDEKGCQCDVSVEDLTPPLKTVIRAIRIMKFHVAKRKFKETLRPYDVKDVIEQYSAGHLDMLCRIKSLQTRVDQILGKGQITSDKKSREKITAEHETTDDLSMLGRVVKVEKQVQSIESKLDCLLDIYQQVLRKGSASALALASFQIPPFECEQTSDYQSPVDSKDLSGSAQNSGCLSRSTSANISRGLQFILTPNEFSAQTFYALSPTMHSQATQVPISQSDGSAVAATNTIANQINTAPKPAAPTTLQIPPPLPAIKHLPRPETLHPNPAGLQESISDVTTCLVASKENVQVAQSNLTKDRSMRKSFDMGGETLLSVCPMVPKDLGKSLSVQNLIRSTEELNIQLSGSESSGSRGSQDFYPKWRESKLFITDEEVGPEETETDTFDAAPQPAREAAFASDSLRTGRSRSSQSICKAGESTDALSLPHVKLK
smiles,measurement,setting,value
"Oc1cc(O)c2c(c1)OC(c1ccc(O)c(O)c1)C(O)C2 (single isomer, unassigned; (+)) [catechin hydrate, (+)-Catechin hydrate]",Slope,Kv1.1 [1],6.10 ± 0.15 mV
same,V0.5 Normalized tail current,Kv1.1 [1],-37.70 ± 0.45 mV
same,V0.5 non-normalized tail current,Kv1.1 [1],-39.60 ± 0.63 mV
"c1ccc(-c2nnn[nH]2)c(Nc2cccc3c2CCCC3)c1 [BL-1249, (5,6,7,8-tetrahydro-naphthalen-1-yl)-[2-(1H-tetrazol-5-yl)-phenyl]-amine]",EC50,TREK-1,1.5 µM
CS(=O)(=O)Nc1ccc(C(=O)NCc2ccc(Cl)cc2Cl)cc1 [ML335],EC50,TREK-1,14 µM
Cc1cc(Cl)ccc1OCCNC(=O)c1cccs1 [ML402],EC50,TREK-1,14 µM
O=C(O)c1cc(O)c(O)c(O)c1 [gallic acid],effect on voltage dependence of Kv1.1,Kv1.1 [2],negative-shift
same,activity on Kv7.5 compared with tannic acid,Kv7.5 [3],active but less efficacious
O=C(OC[C@H]1OC(O)[C@@](O)(COC(=O)c2cc(O)c(O)c(O)c2)[C@@H]1O)c1cc(O)c(O)c(O)c1 (stereo partly drawn) [hamamelitannin],effect on EM of oocytes expressing Kv1.1,Kv1.1 [1],hyperpolarized the EM
same,effect on Kv1.1,Kv1.1 [1],negative-shifted the voltage dependence of Kv1.1 activation
same,Slope,Kv1.1 [1],6.51 ± 0.73 mV
same,V0.5 Normalized tail current,Kv1.1 [1],-35.11 ± 1.66 mV
same,V0.5 non-normalized tail current,Kv1.1 [1],-36.25 ± 1.77 mV
same,activity on Kv7.5 expressed in oocytes,Kv7.5 [4],inactive
same,Slope,Kv7.5 [4]; control 7.66 ± 0.33,7.57 ± 0.17 mV
same,V0.5 Normalized tail current,Kv7.5 [4]; control -48.15 ± 1.14,-47.96 ± 0.99 mV
same,V0.5 non-normalized tail current,Kv7.5 [4]; control -50.27 ± 1.37,-49.87 ± 1.44 mV
CN1CC[C@]23c4c5ccc(O)c4O[C@H]2[C@@H](O)C=C[C@H]3[C@H]1C5 [morphine],attenuation of early phase paw-licking,C57BL/6 mice,40%
